In US12491170B2, “Stable treprostinil prodrugs” (United Therapeutics Corporation, priority 2020, dated 2025):
Read-outs that look alike come from different tables or passages of the source.

Columns and labels:
[1] = Stability in cryopreserved hepatocytes, rat; details: for Mono AUC (treprostinil formed) / AUC / CLint / Half-life: rat; for CLint, calculated (in parentheses) / Half-life, calculated (in parentheses) / CLint / Half-life: hepatocytes
[2] = target: prostaglandin I2 (PGI2) receptor (IP) (Homo sapiens, UniProt P43119); test: IP receptor cAMP agonist assay (CHO-K1 cells); type: cell-based; parameters: key to EC50 Fold Different from Treprostinil, IP Receptor: NC = too inactive to realistically calculate; details: for IP Relative to Tre: Table 22, relative to treprostinil EC50 values, * partial agonists or ambiguous dose-response curves; for Activity at the IP receptor compared to treprostinil: summary of findings
Chain of prostaglandin I2 (PGI2) receptor (IP) (P43119 whole entry): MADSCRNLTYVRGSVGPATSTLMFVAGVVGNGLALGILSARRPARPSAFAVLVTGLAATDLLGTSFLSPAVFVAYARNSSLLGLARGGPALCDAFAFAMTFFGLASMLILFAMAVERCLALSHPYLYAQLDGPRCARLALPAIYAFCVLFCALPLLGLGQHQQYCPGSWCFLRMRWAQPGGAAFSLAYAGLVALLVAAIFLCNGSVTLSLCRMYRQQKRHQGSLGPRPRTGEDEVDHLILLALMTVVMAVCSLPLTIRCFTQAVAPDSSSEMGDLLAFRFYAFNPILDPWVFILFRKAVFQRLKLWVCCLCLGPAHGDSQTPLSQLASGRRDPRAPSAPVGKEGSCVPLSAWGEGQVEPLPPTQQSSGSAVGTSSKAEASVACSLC
Method: (§1) Cyclic AMP assay kit: Multiscreen™ TR-FRET cAMP 1.0 No Wash Assay Kit (Multispan, Inc.)
(§2) Cells were thawed from frozen cells and resuspended in assay buffer at desired concentrations. cAMP or Calcium assays were performed according to the manufacturer's protocol using Multiscreen™ TR-FRET cAMP 1.0 No Wash Assay Kit or Multiscreen™ Calcium 1.0 No Wash Kit.
(§3) Gas Cyclic AMP (cAMP) Assay: In agonist mode testing, cells were seeded in a 384-well plate at an appropriate density and then were treated with compounds and incubated at 37° C. for 20 minutes. The reaction was terminated by […] trFluor™ Eu-labeled cAMP and trFluor™ 650-labeled anti-cAMP antibody in lysis buffer. […] All testing wells contained 0.1% DMSO in the final concentrations.
(§4) Data in graphs are represented in Mean±SD. Dose-dependent responses were fitted with sigmoidal dose-response curves allowing variable slopes using GraphPad Prism version 6 (Graphpad Prism).
(§5) These studies used cell lines overexpressing either human IP, EP2 or DP1, or EP1 receptors, and following incubation with varying concentrations of compounds, cAMP levels were measured using Fluorescence Resonance Energy Transfer (FRET).

[3] = Stability in cryopreserved hepatocytes, dog; details: for Mono AUC (treprostinil formed) / AUC / CLint / Half-life: dog
[4] = target: prostaglandin E2 (PGE2) receptor 2 (EP2) (Homo sapiens, UniProt P43116); test: EP2 receptor cAMP agonist assay (HEK293T cells); type: cell-based; parameters: key to EC50 Fold Different from Treprostinil, EP2 Receptor: NC = too inactive to realistically calculate; details: for EP2 Relative to Tre: Table 22, relative to treprostinil EC50 values, * partial agonists or ambiguous dose-response curves; for Activity at the EP2 receptor compared to treprostinil: summary of findings
Chain of prostaglandin E2 (PGE2) receptor 2 (EP2) (P43116 whole entry): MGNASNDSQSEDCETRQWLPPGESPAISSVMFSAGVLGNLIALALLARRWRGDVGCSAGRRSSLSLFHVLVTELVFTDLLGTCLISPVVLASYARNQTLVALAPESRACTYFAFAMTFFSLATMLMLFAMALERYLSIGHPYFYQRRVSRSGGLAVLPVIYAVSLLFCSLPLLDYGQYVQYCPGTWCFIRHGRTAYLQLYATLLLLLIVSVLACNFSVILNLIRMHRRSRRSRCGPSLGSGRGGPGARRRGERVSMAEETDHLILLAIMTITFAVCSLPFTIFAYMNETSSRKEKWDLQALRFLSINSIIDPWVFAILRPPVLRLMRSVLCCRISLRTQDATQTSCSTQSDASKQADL
Method: as §1, §2, §3, §4, §5

[5] = Stability in liver microsomes, human; details: for AUC Mono (treprostinil formed) / AUC / CLint / Half-life: human
[6] = Stability in cryopreserved hepatocytes, human; details: for Mono AUC (treprostinil formed) / AUC / CLint / Half-life: human; for CLint, calculated (in parentheses) / Half-life, calculated (in parentheses) / CLint / Half-life: hepatocytes
[7] = Hydrolysis of prodrugs to treprostinil at pH 6, 7, 8 and 40 C; type: physicochemical
Excerpt: Tables 24, 25 and 26 present data for hydrolysis of selected treprostinil prodrugs at pH 6, 7 and 8, respectively, and 40 C.

[8] = dog
[9] = rat
[10] = Table 18, * partial agonists or odd dose-response curves

CCCCCC(CCC1C(O)CC2Cc3c(cccc3OCC(=O)O)CC21)OC(=O)CC (centres unmarked) [Prodrug LV]
Treprostinil Concentration 0 min [1]: 0.0159 µM
Treprostinil Concentration 120 min [1]: 0.391 µM
Mono AUC (treprostinil formed) [1]: 49.3 µmol·min/L
IP Relative to Tre [2]: 54x
Treprostinil Concentration 15 min [3]: 0.781 µM
Treprostinil Concentration 120 min [3]: 0.53 µM
Mono AUC (treprostinil formed) [3]: 71.2 µmol·min/L
EP2 Relative to Tre [4]: 50x
Treprostinil Concentration 0 min [5]: 1.17 µM
Treprostinil Concentration 15 min [5]: 1.01 µM
Treprostinil Concentration 30 min [5]: 0.837 µM
Treprostinil Concentration 60 min [5]: 0.736 µM
Treprostinil Concentration 120 min [5]: 0.389 µM
AUC Mono (treprostinil formed) [5]: 44.9 µmol·min/L
Treprostinil Concentration 0 min [6]: 0.113 µM
Treprostinil Concentration 120 min [6]: 0.527 µM
Mono AUC (treprostinil formed) [6]: 68.8 µmol·min/L

CCCCCC(CCC1C(OC(=O)CC)CC2Cc3c(cccc3OCC(=O)O)CC21)OC(=O)CC (centres unmarked) [Prodrug LXX, treprostinil dipropionate]
Trep Concentration (μM) 0 min [1]: 0 µM
Trep Concentration (μM) 15 min [1]: 0.606 µM
Trep Concentration (μM) 30 min [1]: 0.579 µM
Trep Concentration (μM) 60 min [1]: 0.484 µM
Trep Concentration (μM) 120 min [1]: 0.405 µM
Treprostinil Concentration 0 min [1]: 0 µM
Treprostinil Concentration 120 min [1]: 0.405 µM
CLint, calculated (in parentheses) [1]: 0.116 mL/min/mg protein
Half-life, calculated (in parentheses) [1]: 3.97 min
AUC [1]: 56.05 µmol·min/L
Mono AUC (treprostinil formed) [1]: 56.1 µmol·min/L
CLint [1]: > 0.0308 mL/min/mg protein
Half-life [1]: < 15 min
EC50 Fold Different from Treprostinil, IP Receptor [2, 10]: NC
Activity at the IP receptor compared to treprostinil [2]: inactive
Hydrolysis to treprostinil, % Area, t = 1 week ([7]; pH 6, 40 C.): 0.00 % Area
Hydrolysis to treprostinil, % Area, t = 2 weeks ([7]; pH 6, 40 C.): 0.00 % Area
Hydrolysis to treprostinil, % Area, t = 3 weeks ([7]; pH 6, 40 C.): 0.00 % Area
Hydrolysis to treprostinil, % Area, t = 1 week ([7]; pH 7, 40 C.): 0.00 % Area
Hydrolysis to treprostinil, % Area, t = 2 weeks ([7]; pH 7, 40 C.): 0.00 % Area
Hydrolysis to treprostinil, % Area, t = 3 weeks ([7]; pH 7, 40 C.): 0.00 % Area
Hydrolysis to treprostinil, % Area, t = 1 week ([7]; pH 8, 40 C.): 0.00 % Area
Hydrolysis to treprostinil, % Area, t = 2 weeks ([7]; pH 8, 40 C.): 0.00 % Area
Hydrolysis to treprostinil, % Area, t = 3 weeks ([7]; pH 8, 40 C.): 0.00 % Area
Trep Concentration (μM) 0 min [3]: 0.0959 µM
Trep Concentration (μM) 30 min [3]: 0.597 µM
Trep Concentration (μM) 60 min [3]: 0.511 µM
Trep Concentration (μM) 120 min [3]: 0.445 µM
Treprostinil Concentration 15 min [3]: 0.736 µM
Treprostinil Concentration 120 min [3]: 0.445 µM
AUC [3]: 61.54 µmol·min/L
Mono AUC (treprostinil formed) [3]: 61.5 µmol·min/L
CLint ([3]; hepatocytes): >0.0308 mL/min/mg protein
Half-life ([3]; hepatocytes): <15 min
EC50 Fold Different from Treprostinil, EP2 Receptor [4, 10]: NC
Activity at the EP2 receptor compared to treprostinil [4]: inactive
Trep Concentration 0 min [5]: 1.18 µM
Trep Concentration 10 min [5]: 0.903 µM
Trep Concentration 20 min [5]: 0.602 µM
Trep Concentration 30 min [5]: 0.538 µM
Trep Concentration 60 min [5]: 0.381 µM
Treprostinil Concentration 0 min [5]: 1.18 µM
Treprostinil Concentration 15 min [5]: 0.903 µM
Treprostinil Concentration 30 min [5]: 0.602 µM
Treprostinil Concentration 60 min [5]: 0.538 µM
Treprostinil Concentration 120 min [5]: 0.381 µM
AUC [5]: 37.43 µmol·min/L
AUC Mono (treprostinil formed) [5]: 37.4 µmol·min/L
CLint ([5]; microsomes): >0.139 mL/min/mg protein
Half-life ([5]; microsomes): <10 min
AUC [8]: 71.85 µmol·min/L
AUC [9]: 38.82 µmol·min/L
Trep Concentration (μM) 0 min [6]: 0.00542 µM
Trep Concentration (μM) 15 min [6]: 0.638 µM
Trep Concentration (μM) 30 min [6]: 0.556 µM
Trep Concentration (μM) 60 min [6]: 0.482 µM
Trep Concentration (μM) 120 min [6]: 0.413 µM
Treprostinil Concentration 0 min [6]: 0.00542 µM
Treprostinil Concentration 120 min [6]: 0.413 µM
CLint, calculated (in parentheses) [6]: 0.185 mL/min/mg protein
Half-life, calculated (in parentheses) [6]: 2.50 min
AUC [6]: 56.2 µmol·min/L
Mono AUC (treprostinil formed) [6]: 56.2 µmol·min/L
CLint [6]: > 0.0308 mL/min/mg protein
Half-life [6]: < 15 min

CCCCCC(CCC1C(OC(=O)OC)CC2Cc3c(cccc3OCC(=O)O)CC21)OC(=O)OC (centres unmarked) [Prodrug LXXI, treprostinil dicarbonate]
CLint, calculated (in parentheses) [1]: 0.295 mL/min/mg protein
Half-life, calculated (in parentheses) [1]: 1.56 min
AUC [1]: 39.77 µmol·min/L
Mono AUC (treprostinil formed) [1]: 39.8 µmol·min/L
CLint [1]: > 0.0308 mL/min/mg protein
Half-life [1]: < 15 min
Activity at the IP receptor compared to treprostinil [2]: inactive
Hydrolysis to treprostinil, % Area, t = 1 week ([7]; pH 6, 40 C.): 0.00 % Area
Hydrolysis to treprostinil, % Area, t = 2 weeks ([7]; pH 6, 40 C.): 0.00 % Area
Hydrolysis to treprostinil, % Area, t = 3 weeks ([7]; pH 6, 40 C.): 0.00 % Area
Hydrolysis to treprostinil, % Area, t = 1 week ([7]; pH 7, 40 C.): 0.00 % Area
Hydrolysis to treprostinil, % Area, t = 2 weeks ([7]; pH 7, 40 C.): 0.00 % Area
Hydrolysis to treprostinil, % Area, t = 3 weeks ([7]; pH 7, 40 C.): 0.00 % Area
Hydrolysis to treprostinil, % Area, t = 1 week ([7]; pH 8, 40 C.): 0.00 % Area
Hydrolysis to treprostinil, % Area, t = 2 weeks ([7]; pH 8, 40 C.): 0.00 % Area
Hydrolysis to treprostinil, % Area, t = 3 weeks ([7]; pH 8, 40 C.): 0.38 % Area
AUC [3]: 41.47 µmol·min/L
Mono AUC (treprostinil formed) [3]: 41.5 µmol·min/L
CLint ([3]; hepatocytes): > 0.0308 mL/min/mg protein
Half-life ([3]; hepatocytes): < 15 min
CLint, calculated (in parentheses) ([3]; hepatocytes): 0.187 mL/min/mg protein
Half-life, calculated (in parentheses) ([3]; hepatocytes): 2.47 min
Activity at the EP2 receptor compared to treprostinil [4]: inactive
AUC [5]: 10.56 µmol·min/L
AUC Mono (treprostinil formed) [5]: 10.6 µmol·min/L
CLint ([5]; microsomes): > 0.139 mL/min/mg protein
Half-life ([5]; microsomes): < 10 min
CLint, calculated (in parentheses) ([5]; microsomes): 0.189 mL/min/mg protein
Half-life, calculated (in parentheses) ([5]; microsomes): 7.32 min
AUC [8]: 56.21 µmol·min/L
AUC [9]: 33.51 µmol·min/L
CLint, calculated (in parentheses) [6]: 0.0516 mL/min/mg protein
Half-life, calculated (in parentheses) [6]: 8.96 min
AUC [6]: 26.57 µmol·min/L
Mono AUC (treprostinil formed) [6]: 26.6 µmol·min/L
CLint [6]: > 0.0308 mL/min/mg protein
Half-life [6]: < 15 min

CCCCCC(CCC1C(O)CC2Cc3c(cccc3OCC(=O)O)CC21)OP(=O)(O)O (centres unmarked) [Prodrug VI]
Treprostinil Concentration 0 min [1]: 0.128 µM
Treprostinil Concentration 120 min [1]: 0.53 µM
Mono AUC (treprostinil formed) [1]: 66.9 µmol·min/L
IP Relative to Tre [2]: 5x
IP Relative to Tre ([2]; listed as Prodrug VI repeat): 1.5x
Treprostinil Concentration 15 min [3]: 0.581 µM
Treprostinil Concentration 120 min [3]: 0.548 µM
Mono AUC (treprostinil formed) [3]: 62.9 µmol·min/L
EP2 Relative to Tre [4]: 4x
EP2 Relative to Tre ([4]; listed as Prodrug VI repeat): 9x
Treprostinil Concentration 0 min [5]: 0.02 µM
Treprostinil Concentration 15 min [5]: 0.038 µM
Treprostinil Concentration 30 min [5]: 0.038 µM
Treprostinil Concentration 60 min [5]: 0.03 µM
Treprostinil Concentration 120 min [5]: 0.061 µM
AUC Mono (treprostinil formed) [5]: 2.4 µmol·min/L
Treprostinil Concentration 0 min [6]: 0 µM
Treprostinil Concentration 120 min [6]: 0.540 µM
Mono AUC (treprostinil formed) [6]: 48.7 µmol·min/L

CCCCCC(CCC1C(O)CC2Cc3c(cccc3OCC(=O)O)CC21)OC(C)=O (centres unmarked) [Prodrug XLIII]
Treprostinil Concentration 0 min [1]: 0.00292 µM
Treprostinil Concentration 120 min [1]: 0.503 µM
Mono AUC (treprostinil formed) [1]: 41.4 µmol·min/L
IP Relative to Tre [2]: 632x
Treprostinil Concentration 15 min [3]: 0.628 µM
Treprostinil Concentration 120 min [3]: 0.4 µM
Mono AUC (treprostinil formed) [3]: 54.0 µmol·min/L
EP2 Relative to Tre [4]: 461x
Treprostinil Concentration 0 min [5]: 0.883 µM
Treprostinil Concentration 15 min [5]: 0.681 µM
Treprostinil Concentration 30 min [5]: 0.602 µM
Treprostinil Concentration 60 min [5]: 0.513 µM
Treprostinil Concentration 120 min [5]: 0.341 µM
AUC Mono (treprostinil formed) [5]: 32.6 µmol·min/L
Treprostinil Concentration 0 min [6]: 0.00744 µM
Treprostinil Concentration 120 min [6]: 0.507 µM
Mono AUC (treprostinil formed) [6]: 62.2 µmol·min/L
